Results published in patent publication US20240400521A1, “QUINAZOLINE COMPOUND, COMPOSITION, AND APPLICATION THEREOF” (BEIJING SCITECH-MQ PHARMACEUTICALS LIMITED, priority 2021, published 2024).

Tests used:
HCC-827 cells = experiment: Inhibition of cell proliferation, CTG method, HCC-827; type: cell-based; details: Homo sapiens, HCC827, 72 hours
From the text: (§1) The present application examined the in vitro anti-proliferative activity of the compounds of the present disclosure against in vitro cultured HCC-827, Ba/F3-EGFR-VIII and Ba/F3 EGFR D770_N771insSVD cell lines by CTG method.
(§2) Reagents and consumables: RPMI1640 (ThermoFisher, Cat. No. C11875500BT); DMEM (ThermoFisher, C11995500BT); fetal bovine serum (Hyclone, Cat. No. SV30087.03); 0.25% trypsin-EDTA (ThermoFisher, Cat. No. 25200072); penicillin-streptomycin (Hyclone, Cat. No. SV30010); DMSO (Life Science, Cat. No. 0231-500ML); CTG assay kit (Promega, Cat. No. G9243); 96-well plate (Corning, Cat. No. 3599); multifunctional plate reader (Perkin Elmer, Cat. No. Envision)
(§3) Cell lines: HCC-827 (from ATCC), Ba/F3-EGFR-VIII and Ba/F3 EGFR D770_N771insSVD (all from KYinno Biotechnology (Beijing) Co., Ltd.); all of the above cells were cultured with RPMI1640 medium containing 10% fetal bovine serum, 100 U/mL penicillin, and 100 μg/mL streptomycin in the culture process, and HCC-827 was cultured with DMEM medium containing 10% fetal bovine serum, 100 U/mL penicillin, and 100 μg/mL streptomycin.
(§4) • 1. The assay compound was dissolved with DMSO to form a stock solution and a gradient dilution was performed, followed by dilution with the corresponding medium to obtain a solution with 5-fold working concentration. • 2. Cells in logarithmic growth phase were adjusted to specific cell densities by dilution with culture medium, and 80 μL of cell suspension was added to a 96-well plate, such that plating densities of cells of HCC-827, Ba/F3-EGFR-VIII and Ba/F3 EGFR D770_N771insSVD were all 3000 cells/well. The cells of Ba/F3-EGFR-VIII and Ba/F3 EGFR D770_N771insSVD were used directly in the next step (treatment with compound), whereas the HCC-827 needed to be cultured overnight in a 37° C., 5% carbon dioxide gas incubator to adhere to the wall, and then treated with compounds. • 3. 20 μL of compound solution was added to each well of the 96-well plate that had been inoculated with cells. The highest concentration of the assayed compound was 10 μM, 4-fold serial dilution, a total of 9 concentrations, and duplicate wells. A control group without compound was also set up. • 4. The cells were cultured for another 72 hours, and then cell viability was detected by CTG assay kit. Signal values were read with a multifunctional plate reader (Perkin Elmer). GraphPad Prism software was used to create a dose-response curve and IC50 was calculated.

EGFR^WT kinase = target: T1, EGFR^WT kinase (Homo sapiens, UniProt P00533); experiment: EGFR^WT kinase assay (ULight peptide / Eu-PT66 antibody detection); type: biochemical
T1 construct: purchased Carna Biosciences 08-115
From the text: (§5) Reagents and consumables: ULight™-labeled Ploy GT Peptide (Perkin Elmer, Cat. No. TRF-0100-M); ULight™-labeled JAK-1 (Try1023) Peptide (Perkin Elmer, Cat. No. TRF-0121-M); Eu-W1024-labeled Anti-Phosphotyrosine Antibody (PT66) (Perkin Elmer, Cat. No. AD0068); 10×Detection Buffer (Perkin Elmer, Cat. No. CR97-100); HER2 Kinase (Carna Biosciences, Cat. No. 08-016); EGFR kinase (Carna Biosciences, Cat. No. 08-115); HEPES (GIBCO, Cat. No. 15630-080); EGTA (Sigma, Cat. No. 03777-10G); EDTA (Sigma, Cat. No. EDS-100G); MgCl2 (Sigma, Cat. No. 63069-100ML); DTT (Sigma, Cat. No. 43816-10ML); Tween-20 (Sigma, Cat. No. P7949-100ML); DMSO (Life Science, Cat. No. 0231-500ML); 384-well plates (Perkin Elmer, Cat. No. 607290); multifunctional plate reader (Perkin Elmer, Cat. No. Envision)
(§6) Preparation of compound solution: The assay compound was dissolved in DMSO to form a 10 mM stock solution. Prior to use, the compound was diluted to 0.25 mM in DMSO (100 times the final concentration of the diluent) and then subjected to a 3-fold concentration gradient dilution to obtain a total of 11 concentrations. The solution was diluted with buffer to a diluent with 4× the final concentration when the drug was added.
(§7) EGFR^WT kinase assay: buffer was prepared, and 3.48 nM 4× EGFR kinase solution, 600 μM 4× ATP solution, and 400 nM 4×ULight™-labeled JAK-1 (Try1023) Peptide substrate solution was prepared using the buffer. After the preparation was completed, the enzyme was mixed with different concentrations of compounds pre-prepared by dilution, and the mixture was left to stand at room temperature for 5 min. Each concentration was performed in duplicate. The corresponding substrate and ATP were added and the mixture was reacted at room temperature for 120 minutes (with negative and positive controls). After completion of the reaction, PT66 detection antibody was added. The mixture was incubated at room temperature for 60 minutes, and then detected by Envision.
(§8) Data Calculation: the reading of well and inhibition rate were calculated using Excel, wherein reading of well=10000*(well EU665 value)/(well EU615 value), and inhibition rate=[(reading of positive control well−reading of assay well)/(reading of positive control well−reading of negative control well)]*100%. Compound concentrations and corresponding inhibition rates were input into GraphPad Prism for processing to calculate IC50 values.

[1] = target: Ba/F3 EGFR D770_N771insSVD cells (Homo sapiens, UniProt P00533, DUP768-770, cells depend on it); experiment: Inhibition of cell proliferation, CTG method, Ba/F3 EGFR D770_N771insSVD; type: cell-based; details: 72 hours, read-out: Ba/F3 EGFR D770_N771insSVD IC50
From the text: as §1, §2, §3, §4

Ba/F3-EGFR-VIII cells = Ba/F3-EGFR-VIII cells (Homo sapiens, UniProt P00533, DELINS30-297G, cells depend on it); experiment: Inhibition of cell proliferation, CTG method, Ba/F3-EGFR-VIII; type: cell-based; details: 72 hours, read-out: Ba/F3 EGFRvIII IC50
From the text: as §1, §2, §3, §4

HER2 kinase = target: T2, HER2 kinase (Homo sapiens, UniProt P04626); experiment: HER2 kinase assay (ULight peptide / Eu-PT66 antibody detection); type: biochemical
T2 construct: purchased Carna Biosciences 08-016
From the text: as §5, §6
as §7, with “HER2 kinase” for “EGFR^WT kinase”, “and 40” for “and 3.48”, “4× HER2” for “4× EGFR”, “solution, 40” for “solution, 600”, “4×ULight™-labeled Ploy GT” for “4×ULight™-labeled JAK-1 (Try1023)”, “solution were” for “solution was”
as §8

Ba/F3 EGFR D770_N771insSVD cells, sequence (P00533 with tags, fused parts or gaps DUP768-770): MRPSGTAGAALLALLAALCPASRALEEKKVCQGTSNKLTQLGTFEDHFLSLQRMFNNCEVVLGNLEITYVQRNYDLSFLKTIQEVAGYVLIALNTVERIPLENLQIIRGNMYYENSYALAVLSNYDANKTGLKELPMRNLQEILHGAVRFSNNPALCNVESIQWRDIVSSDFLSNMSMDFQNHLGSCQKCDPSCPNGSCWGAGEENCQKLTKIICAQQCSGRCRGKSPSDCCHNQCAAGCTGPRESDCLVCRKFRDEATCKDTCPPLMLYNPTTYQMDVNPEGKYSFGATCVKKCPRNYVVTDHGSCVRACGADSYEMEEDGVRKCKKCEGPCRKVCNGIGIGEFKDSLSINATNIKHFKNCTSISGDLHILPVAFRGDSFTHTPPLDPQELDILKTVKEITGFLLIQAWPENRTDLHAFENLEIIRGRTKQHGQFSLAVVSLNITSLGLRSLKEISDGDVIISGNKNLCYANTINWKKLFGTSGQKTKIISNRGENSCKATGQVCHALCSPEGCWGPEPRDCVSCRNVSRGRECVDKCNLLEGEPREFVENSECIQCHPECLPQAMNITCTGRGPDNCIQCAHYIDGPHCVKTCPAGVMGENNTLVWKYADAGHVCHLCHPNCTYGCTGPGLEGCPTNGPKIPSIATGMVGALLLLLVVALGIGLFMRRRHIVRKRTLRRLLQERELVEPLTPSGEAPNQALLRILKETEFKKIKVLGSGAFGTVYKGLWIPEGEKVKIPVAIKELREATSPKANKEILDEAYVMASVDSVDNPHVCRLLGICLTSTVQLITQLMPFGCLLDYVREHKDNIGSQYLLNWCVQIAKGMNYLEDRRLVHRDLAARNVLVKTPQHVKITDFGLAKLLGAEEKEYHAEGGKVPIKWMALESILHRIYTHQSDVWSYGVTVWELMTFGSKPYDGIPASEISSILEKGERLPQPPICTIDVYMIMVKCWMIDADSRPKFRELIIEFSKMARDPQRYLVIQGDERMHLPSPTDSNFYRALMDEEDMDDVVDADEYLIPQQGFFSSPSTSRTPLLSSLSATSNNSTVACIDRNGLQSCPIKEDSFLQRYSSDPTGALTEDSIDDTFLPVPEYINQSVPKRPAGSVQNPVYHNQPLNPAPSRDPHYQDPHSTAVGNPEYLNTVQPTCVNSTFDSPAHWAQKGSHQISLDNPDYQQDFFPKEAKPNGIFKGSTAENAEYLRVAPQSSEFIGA
T1 sequence (P00533 25-1210): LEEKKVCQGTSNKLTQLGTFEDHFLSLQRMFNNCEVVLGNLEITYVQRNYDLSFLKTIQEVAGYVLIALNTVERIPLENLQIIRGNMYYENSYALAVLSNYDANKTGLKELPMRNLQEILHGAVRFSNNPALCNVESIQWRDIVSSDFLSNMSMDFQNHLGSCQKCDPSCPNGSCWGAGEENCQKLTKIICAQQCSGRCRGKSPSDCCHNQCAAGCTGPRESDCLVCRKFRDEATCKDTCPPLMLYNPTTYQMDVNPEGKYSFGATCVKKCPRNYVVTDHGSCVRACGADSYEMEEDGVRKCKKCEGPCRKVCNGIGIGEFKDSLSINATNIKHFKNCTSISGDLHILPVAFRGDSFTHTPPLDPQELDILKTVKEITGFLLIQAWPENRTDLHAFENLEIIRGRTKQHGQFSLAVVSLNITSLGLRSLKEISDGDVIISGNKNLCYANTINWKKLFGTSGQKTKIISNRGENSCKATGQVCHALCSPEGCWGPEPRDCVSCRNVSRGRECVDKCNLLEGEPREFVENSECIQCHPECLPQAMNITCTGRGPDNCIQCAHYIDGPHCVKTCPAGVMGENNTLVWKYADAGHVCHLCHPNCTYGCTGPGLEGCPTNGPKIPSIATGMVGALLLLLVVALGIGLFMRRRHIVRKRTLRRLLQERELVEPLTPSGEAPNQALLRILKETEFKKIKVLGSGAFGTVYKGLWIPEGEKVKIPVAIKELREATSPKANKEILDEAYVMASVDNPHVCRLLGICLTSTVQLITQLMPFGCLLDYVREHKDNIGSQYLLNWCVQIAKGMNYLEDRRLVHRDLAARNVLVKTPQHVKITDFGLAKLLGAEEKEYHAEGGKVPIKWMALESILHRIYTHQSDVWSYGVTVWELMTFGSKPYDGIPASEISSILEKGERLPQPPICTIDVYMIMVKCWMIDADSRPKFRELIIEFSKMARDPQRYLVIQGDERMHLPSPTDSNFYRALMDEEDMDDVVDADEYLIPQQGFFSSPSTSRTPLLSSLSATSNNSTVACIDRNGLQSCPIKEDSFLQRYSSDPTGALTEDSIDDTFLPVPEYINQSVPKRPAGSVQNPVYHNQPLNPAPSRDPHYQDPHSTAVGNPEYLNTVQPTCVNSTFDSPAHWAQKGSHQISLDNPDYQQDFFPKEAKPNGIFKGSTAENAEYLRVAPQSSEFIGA
Ba/F3-EGFR-VIII cells, sequence (P00533 with tags, fused parts or gaps DELINS30-297G): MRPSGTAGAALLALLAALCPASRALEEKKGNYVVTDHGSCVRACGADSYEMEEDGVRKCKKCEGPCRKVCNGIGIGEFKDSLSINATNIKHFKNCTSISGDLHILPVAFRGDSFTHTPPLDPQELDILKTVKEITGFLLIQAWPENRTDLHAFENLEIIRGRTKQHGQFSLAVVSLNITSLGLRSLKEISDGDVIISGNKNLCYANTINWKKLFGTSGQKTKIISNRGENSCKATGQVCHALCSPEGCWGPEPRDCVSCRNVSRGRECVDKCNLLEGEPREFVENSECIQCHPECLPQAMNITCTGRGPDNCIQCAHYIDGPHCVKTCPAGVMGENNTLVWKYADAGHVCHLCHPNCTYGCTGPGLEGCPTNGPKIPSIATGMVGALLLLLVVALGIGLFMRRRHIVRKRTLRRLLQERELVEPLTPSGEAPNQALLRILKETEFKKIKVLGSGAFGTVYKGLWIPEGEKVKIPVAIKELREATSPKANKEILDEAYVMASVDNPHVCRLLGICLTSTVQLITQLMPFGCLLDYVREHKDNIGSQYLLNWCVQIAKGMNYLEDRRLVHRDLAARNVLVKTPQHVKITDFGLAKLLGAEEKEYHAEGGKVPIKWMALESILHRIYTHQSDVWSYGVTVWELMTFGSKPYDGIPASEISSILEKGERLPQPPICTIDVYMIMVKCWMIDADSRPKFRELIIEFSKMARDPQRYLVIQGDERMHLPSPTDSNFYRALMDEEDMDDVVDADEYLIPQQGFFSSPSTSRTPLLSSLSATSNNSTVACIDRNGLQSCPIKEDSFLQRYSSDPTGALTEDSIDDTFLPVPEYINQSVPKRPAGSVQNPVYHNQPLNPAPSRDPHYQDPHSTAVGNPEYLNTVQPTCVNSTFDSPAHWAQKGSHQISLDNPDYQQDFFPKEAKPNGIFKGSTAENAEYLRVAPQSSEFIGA
T2 sequence (P04626 23-1255): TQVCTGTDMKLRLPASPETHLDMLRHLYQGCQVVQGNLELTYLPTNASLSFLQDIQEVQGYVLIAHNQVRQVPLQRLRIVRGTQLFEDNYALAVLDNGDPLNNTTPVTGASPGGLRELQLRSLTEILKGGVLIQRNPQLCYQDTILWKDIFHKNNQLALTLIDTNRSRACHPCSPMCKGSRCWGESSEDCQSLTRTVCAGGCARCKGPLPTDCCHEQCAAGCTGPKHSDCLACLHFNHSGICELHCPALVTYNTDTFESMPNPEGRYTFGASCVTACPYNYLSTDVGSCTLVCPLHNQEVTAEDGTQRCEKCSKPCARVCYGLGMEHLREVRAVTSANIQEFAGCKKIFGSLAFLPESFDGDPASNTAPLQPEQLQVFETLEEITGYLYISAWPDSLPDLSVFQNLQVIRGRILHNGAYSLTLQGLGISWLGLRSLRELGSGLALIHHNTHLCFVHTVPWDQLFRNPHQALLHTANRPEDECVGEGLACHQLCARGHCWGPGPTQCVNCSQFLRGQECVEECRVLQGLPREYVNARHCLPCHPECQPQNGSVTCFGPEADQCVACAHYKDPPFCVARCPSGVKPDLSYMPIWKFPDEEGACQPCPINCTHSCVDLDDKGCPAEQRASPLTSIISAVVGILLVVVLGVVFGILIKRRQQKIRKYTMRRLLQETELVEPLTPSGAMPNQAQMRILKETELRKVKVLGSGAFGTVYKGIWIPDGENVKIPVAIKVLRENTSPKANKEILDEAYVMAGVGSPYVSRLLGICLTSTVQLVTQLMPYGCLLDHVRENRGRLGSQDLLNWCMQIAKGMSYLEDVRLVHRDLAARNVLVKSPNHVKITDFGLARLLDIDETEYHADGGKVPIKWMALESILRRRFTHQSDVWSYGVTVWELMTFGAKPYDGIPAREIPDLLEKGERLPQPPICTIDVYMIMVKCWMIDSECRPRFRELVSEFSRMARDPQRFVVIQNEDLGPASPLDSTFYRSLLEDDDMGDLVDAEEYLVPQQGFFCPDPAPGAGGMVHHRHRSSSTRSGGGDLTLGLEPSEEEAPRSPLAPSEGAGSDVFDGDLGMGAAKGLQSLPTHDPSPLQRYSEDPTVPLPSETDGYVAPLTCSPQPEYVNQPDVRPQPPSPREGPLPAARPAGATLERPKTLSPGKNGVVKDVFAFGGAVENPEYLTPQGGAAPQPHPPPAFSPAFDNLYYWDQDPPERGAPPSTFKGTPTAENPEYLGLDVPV

Row | SMILES | IC50 (HCC-827 cells) | IC50 (EGFR^WT kinase) | GI50 [1] | GI50 (Ba/F3-EGFR-VIII cells) | IC50 (HER2 kinase)
1 | CN(C)C/C=C/C(=O)Nc1ccc2ncnc(Nc3cccc(Cl)c3F)c2c1OCCC(C)(C)O [Example 14, (E)-N-(4-((3-chloro-2-fluorophenyl)amino)-5-(3-hydroxy-3-methylbutoxy)quinazolin-6-yl)-4-(dimethylamino)but-2-enamide] | ≤ 5 nM | 1 to 10 nM | 50 to 500 nM | 5 to 50 nM | 10 to 100 nM
2 | CC(C)Oc1c(NC(=O)/C=C/CN(C)C)ccc2ncnc(Nc3cccc(Cl)c3F)c12 [Example 10, (E)-N-(4-((3-chloro-2-fluorophenyl)amino)-5-isopropoxyquinazolin-6-yl)-4-(dimethylamino)but-2-enamide] | 5 to 50 nM | 1 to 10 nM | 50 to 500 nM | 50 to 500 nM | 100 to 1000 nM
3 | CN(C)C/C=C/C(=O)Nc1ccc2ncnc(Nc3cccc(Cl)c3F)c2c1OCCF [Example 4, (E)-N-(4-((3-chloro-2-fluorophenyl)amino)-5-(2-fluoroethoxy)quinazolin-6-yl)-4-(dimethylamino)but-2-enamide] | ≤ 5 nM | ≤ 1 nM | 50 to 500 nM | 5 to 50 nM | 10 to 100 nM
4 | CN(C)C/C=C/C(=O)Nc1ccc2ncnc(Nc3cccc(Cl)c3F)c2c1OCC(F)F [Example 17, (E)-N-(4-((3-chloro-2-fluorophenyl)amino)-5-(2,2-difluoroethoxy)quinazolin-6-yl)-4-(dimethylamino)but-2-enamide] | ≤ 5 nM | ≤ 1 nM | 50 to 500 nM | 5 to 50 nM | 100 to 1000 nM
5 | COc1c(NC(=O)/C=C/CNC(C)C)ccc2ncnc(Nc3cccc(Cl)c3F)c12 [Example 9, (E)-N-(4-((3-chloro-2-fluorophenyl)amino)-5-methoxyquinazolin-6-yl)-4-(isopropylamino)but-2-enamide] | ≤ 5 nM | ≤ 1 nM | 5 to 50 nM | ≤ 5 nM | 10 to 100 nM
6 | CN(C)C/C=C/C(=O)Nc1ccc2ncnc(Nc3cccc(Cl)c3F)c2c1OCCO [Example 5, (E)-N-(4-((3-chloro-2-fluorophenyl)amino)-5-(2-hydroxyethoxy)quinazolin-6-yl)-4-(dimethylamino)but-2-enamide] | ≤ 5 nM | ≤ 1 nM | 5 to 50 nM | ≤ 5 nM | 10 to 100 nM
7 | COCCCOc1c(NC(=O)/C=C/CN(C)C)ccc2ncnc(Nc3cccc(Cl)c3F)c12 [Example 6, (E)-N-(4-((3-chloro-2-fluorophenyl)amino)-5-(3-methoxypropoxy)quinazolin-6-yl)-4-(dimethylamino)but-2-enamide] | ≤ 5 nM | ≤ 1 nM | 50 to 500 nM | 5 to 50 nM | 100 to 1000 nM
8 | CN(C)C/C=C/C(=O)Nc1ccc2ncnc(Nc3cccc(Cl)c3F)c2c1OCC(F)(F)F [Example 16, (E)-N-(4-((3-chloro-2-fluorophenyl)amino)-5-(2,2,2-trifluoroethoxy)quinazolin-6-yl)-4-(dimethylamino)but-2-enamide] | ≤ 5 nM | ≤ 1 nM | 50 to 500 nM | 5 to 50 nM | 10 to 100 nM
9 | CN(C)C/C=C/C(=O)Nc1ccc2ncnc(Nc3cccc(Cl)c3F)c2c1OCC(C)(C)O [Example 13, (E)-N-(4-((3-chloro-2-fluorophenyl)amino)-5-(2-hydroxy-2-methylpropoxy)quinazolin-6-yl)-4-(dimethylamino)but-2-enamide] | ≤ 5 nM | ≤ 1 nM | 50 to 500 nM | ≤ 5 nM | 10 to 100 nM
